Test results reported in patent US10828301B2, “2,4-pyrimidinediamine compounds and their uses” (Rigel Pharmaceuticals, Inc, priority 2002, dated 2020).
Structures can show the parent of a compound that is named as a salt.

Key:
Format in all cases: cell-based
[1] = tested on: cultured human mast cells (CHMC); assay: CHMC low cell density ionomycin activation: tryptase assay; conditions: Low Density CHMC, ionomycin activation, tryptase readout, read-out: CHMC Ionomycin Tryptase
[2] = tested on: cultured human mast cells (CHMC); assay: CHMC high cell density IgE activation: degranulation (hexos, tryptase, histamine), leukotriene (LTC4) and cytokine (TNFalpha, IL-13) assays; conditions: anti-IgE activation
Procedure: After sensitizing, cells are counted, pelleted (1000 rpm, 5-10 minutes), and resuspended at 1-2×10^6 cells/ml in MT buffer. Add 100 ul of cell suspension to each well and 100 ul of compound dilutions. The final vehicle concentration is 0.5% DMSO. Incubate at 37° C. (5% CO2) for 1 hour. After 1 hour of compound treatment, stimulate cells with 6× anti-IgE. Mix wells with the cells and allow plates to incubate at 37° C. (5% CO2) for one hour. After 1 hour incubation, pellet cells (10 minutes, 1000 RPM) and collect 200 ul per well of the supernatant, being careful not to disturb pellet. Place the supernatant plate on ice. During the 7-hour step (see next) perform tryptase assay on supernatant that had been diluted 1:500. Resuspend cell pellet in 240 ul of CM media containing 0.5% DMSO and corresponding concentration of compound. Incubate CHMC cells for 7 hours at 37° C. (5% CO2). After incubation, pellet cells (1000 RPM, 10 minutes) and collect 225 ul per well and place in −80° C. until ready to perform ELISAS. ELISAS are performed on appropriately diluted samples (determined empirically for each donor cell population so that the sample measurement falls within the standard curve) following the supplier's instructions.

[3] = tested on: cultured human mast cells (CHMC); assay: CHMC low cell density IgE activation: tryptase and LTC4 assays; conditions: Low Density CHMC, anti-IgE activation
Summary of the method: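 Degranulation measured after 30 min anti-IgE challenge at 37° C of CHMC plated at 1000-1500 cells/well following 1 h preincubation. Readouts: LTC4 by ELISA on donor-specific diluted supernatants, and tryptase activity from a 30 min room-temperature substrate reaction.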

[4] = LTC4, read-out: CHMC high density LTC4
[5] = TNF-alpha, read-out: CHMC high density TNF-alpha
[6] = hexosaminidase release, read-out: CHMC high density hexos
[7] = histamine release, read-out: CHMC high density histamine
[8] = tryptase release, read-out: CHMC high density tryptase
[9] = Homo sapiens, Mast cell, tryptase readout, read-out: CHMC anti-IgE Tryptase
[10] = Homo sapiens, Mast cell, LTC4 readout, read-out: CHMC anti-IgE LTC4
[11] = IL-13, read-out: CHMC high density IL-13
[12] = tryptase readout, read-out: CHMC anti-IgE Tryptase

Compound | IC50 ([1]; Homo sapiens, Mast cell) [nM] | IC50 [2, 5] [nM] | IC50 [2, 6] [nM] | IC50 [2, 8] [nM] | IC50 [3, 9] [nM] | further results
COC(=O)c1cc2cc(Nc3ncc(F)c(Nc4ccc(OC(C)C)cc4)n3)ccc2o1 [Compound R926704, 5-Fluoro-N2-(2-methoxycarbonylbenzofuran-5-yl)-N4-(4-isopropoxyphenyl)-2,4-pyrimidinediamine] | > 10000 | > 10000 | > 2000 | > 10000 | 564 | IC50 [2, 4]: > 10000 nM; IC50 [2, 7]: > 10000 nM
Cc1cc(Nc2ncc(F)c(Nc3cc(C)c(O)c(Cl)c3)n2)cc(Cl)c1O [Compound R940216, N2,N4-Bis-(3-chloro-4-hydroxy-5-methylphenyl)-5-fluoro-2,4-pyrimidinediamine] | 7300 | 3190 | < 1100 | < 1100 | 268 | IC50 [2, 11]: 3010 nM; IC50 [2, 4]: < 1100 nM; IC50 [2, 7]: 1180 nM
COC(=O)C1Cc2cc(Nc3ncc(F)c(Nc4ccc(OC(C)C)cc4)n3)ccc2O1 (stereo not drawn) [Compound R926706, 5-Fluoro-N2-(2,3-dihydro-2-(methoxycarbonyl)benzofuran-5-yl)-N4-(4-isopropoxyphenyl)-2,4-pyrimidinediamine] | 2410 | > 10000 | > 2000 | > 10000 | 70 | IC50 [2, 4]: 1490 nM; IC50 [2, 7]: > 10000 nM; IC50 [3, 10]: 78 nM
COC(=O)Cn1ncc2cc(Nc3ncc(F)c(Nc4cccc(O)c4)n3)ccc21 [Compound R935237, 5-Fluoro-N4-(3-hydroxyphenyl)-N2-[1-(methoxycarbonyl)methyl-indazoline-5-yl]-2,4-pyrimidinediamine] |  |  |  |  |  | IC50 [1]: > 10000 nM; IC50 [3, 12]: 240 nM
Cc1cnc(NCCc2ccc(O)cc2)nc1NCCc1ccc(O)cc1 [Compound R926397, N2,N4-Bis[2-(4-hydroxyphenyl)ethyl]-5-methyl-2,4-pyrimidinediamine] | > 10000 |  |  |  | > 10000 | 
CNC(=O)C=Nc1cccc(Nc2ncc(F)c(Nc3cccc(NCCO)c3)n2)c1 [Compound R950233, 5-Fluoro-N4-[3-(2-hydroxyethylamino)phenyl]-N2-[3-(N-methylamino)carbonylmethyleneaminophenyl]-2,4-pyrimidinediamine] | > 10000 |  |  |  | 980 | 
Clc1ccc(-c2cnc(Nc3ccc4c(c3)OCCO4)nc2Nc2ccc3c(c2)OCCO3)cc1 [Compound R925786, N2,N4-Bis(3,4-ethylenedioxyphenyl)-5-(4-chlorophenyl)-2,4-pyrimidinediamine] | > 10000 |  |  |  | 1850 | 
CNC(=O)Cn1ncc2ccc(Nc3nc(Nc4ccc5c(c4)OCCO5)ncc3F)cc21 [Compound R935225, N2-(3,4-Ethylenedioxyphenyl)-5-fluoro-N4-[1-(N-methylaminocarbonyl)methyl-indazoline-6-yl]-2,4-pyrimidinediamine] |  |  |  |  |  | IC50 [1]: > 10000 nM; IC50 [3, 12]: 6500 nM
Fc1cnc(Nc2cccc(OCc3ccccc3)c2)nc1Nc1cccc(OCc2ccccc2)c1 [Compound R926394, N2,N4-Bis(3-benzyloxyphenyl)-5-fluoro-2,4-pyrimidinediamine] | > 10000 |  |  |  | > 10000 | 
c1ccc(-c2cc(Nc3ccc4c(c3)OCCO4)nc(Nc3ccc4c(c3)OCCO4)n2)cc1 [Compound R925811, N2,N4-Bis(3,4-ethylenedioxyphenyl)-6-phenyl-2,4-pyrimidinediamine] | > 10000 |  |  |  | 3300 | 
Oc1cccc(Nc2ncc(F)c(NC(c3ccc(Cl)cc3)c3ccc(Cl)cc3)n2)c1 [Compound R935019, 5-Fluoro-N2-(3-hydroxyphenyl)-N4-[di-(4-chlorophenyl)methyl]-2,4-pyrimidinediamine] | > 10000 |  |  |  | 8800 | 
Fc1cnc(Nc2ccc3c(c2)OCCO3)nc1NCc1csc2ccc(Cl)cc12 [Compound R926721, N4-[(5-Chloro-1-benzothiophen-3-yl)methyl]-N2-(3,4-ethylenedioxyphenyl)-5-fluoro-2,4-pyrimidinediamine] | > 10000 |  |  |  | 4440 | 
COC(=O)c1ccc(Nc2ncc(F)c(Nc3ccc(C(=O)OC)cc3)n2)cc1 [Compound R945034, N2,N4-Bis(4-methoxycarbonylphenyl)-5-fluoro-2,4-pyrimidinediamine] | > 10000 |  |  |  | 1850 | 
CN(C)CCOc1cccc(Nc2ncc(F)c(Nc3ccc4c(c3)OCCO4)n2)c1 [Compound R926771, N2-[3-[2-(N, N-Dimethylamino)ethyloxy]phenyl]-N4-(3,4-Ethylenedioxyphenyl)-5-fluoro-2,4-pyrimidinediamine Hydrogen Chloride Salt] | > 10000 |  |  |  | 2050 | 
CCCCCCOc1ccc(Nc2ncc(F)c(Nc3ccc4c(c3)OCCO4)n2)cc1 [Compound R920664, N4-(3,4-Ethylenedioxyphenyl)-5-fluoro-N2-(4-n-hexyloxyphenyl)-2,4-pyrimidindiamine] | > 10000 |  |  |  | > 10000 | 

Now from value to compound, other results behind:

IC50 ([1]; Homo sapiens, Mast cell) [nM] | IC50 [2, 5] [nM] | IC50 [2, 6] [nM] | IC50 [2, 8] [nM] | IC50 [3, 9] [nM] | Compound | further results
> 10000 | 622 | 429 | 533 | 571 | CNC(=O)c1cc2cc(Nc3ncc(F)c(Nc4ccc5c(c4)OCCO5)n3)ccc2o1 [Compound R926496, N4-(3,4-Ethylenedioxyphenyl)-5-fluoro-N2-[2-(N-methylamino)carbonylbenzofuran-5-yl]-2,4-pyrimidinediamine] | IC50 [2, 4]: 414 nM; IC50 [2, 7]: 809 nM
> 10000 | > 10000 | 640 | > 2000 | 313 | CNC(=O)c1cc2cc(Nc3ncc(F)c(Nc4ccc(C(C)(C)C)cc4)n3)ccc2o1 [Compound R926494, N4-(4-tert-Butylphenyl)-5-fluoro-N2-[2-(N-methylamino)carbonylbenzofuran-5-yl]-2,4-pyrimidinediamine] | IC50 [2, 4]: 326 nM; IC50 [2, 7]: > 10000 nM; IC50 [3, 10]: 78 nM
> 10000 | < 1100 | < 1100 | < 1100 |  | OCc1cc2cc(Nc3ncc(F)c(Nc4cccc(O)c4)n3)ccc2[nH]1 [Compound R926700, 5-Fluoro-N4-(3-hydroxyphenyl)-N2-[2-(hydroxymethyl)-(1H)-indol-5-yl]-2,4-pyrimidinediamine] | IC50 [2, 11]: 2050 nM; IC50 [2, 4]: < 1100 nM; IC50 [2, 7]: < 1100 nM
> 10000 | > 10000 | > 10000 | > 10000 | 228 | COC(=O)c1cc2cc(Nc3ncc(F)c(Nc4cccc(O)c4)n3)ccc2o1 [Compound R926614, 5-Fluoro-N4-(3-hydroxyphenyl)-N2-(2-methoxycarbonylbenzofuran-5-yl)-2,4-pyrimidinediamine] | IC50 [2, 11]: 6440 nM
> 10000 | > 10000 | 1010 | 1260 | 263 | CC(C)Oc1ccc(Nc2nc(Nc3ccc4oc(CO)cc4c3)ncc2F)cc1 [Compound R926705, 5-Fluoro-N2-[2-(hydroxymethyl)benzofuran-5-yl]-N4-[4-(isopropoxy)phenyl]-2,4-pyrimidinediamine] | IC50 [2, 4]: 494 nM; IC50 [2, 7]: 641 nM; IC50 [3, 10]: 533 nM
> 10000 |  |  |  | 775 | Oc1ccc(Nc2ncc(F)c(Nc3ccc(O)c(F)c3)n2)cc1F [Compound R926681, N2,N4-Bis(3-fluoro-4-hydroxyphenyl)-5-fluoro-2,4-pyrimidinediamine] | 
> 10000 |  |  |  | 489 | CN(C)C(=O)C=Nc1cccc(Nc2ncc(F)c(Nc3cccc(O)c3)n2)c1 [Compound R950220, N2-[3-(N,N-Dimethylamino)carbonylmethyleneaminophenyl]-5-fluoro-N4-(3-hydroxyphenyl)-2,4-pyrimidinediamine] | 
99000 |  |  |  | 326 | COC(=O)C1Cc2cc(Nc3ncc(F)c(Nc4ccc(Cl)cc4)n3)ccc2O1 (racemic) [Compound R927024, (±)-N4-(4-Chlorophenyl)-N2-(2,3-dihydro-2-methoxycarbonylbenzofuran-5-yl)-5-fluoro-2,4-pyrimidinediamine] | 
> 10000 |  |  |  | > 10000 | CC(Nc1nc(Nc2cccc(O)c2)ncc1F)c1ccc(F)cc1 (racemic) [Compound R935021, (±)-5-Fluoro-N4-[1-(4-fluorophenyl)ethyl]-N2-(3-hydroxyphenyl)-2,4-pyrimidinediamine] | 
> 10000 |  |  |  | 4010 | COC(=O)c1cc2cc(Nc3nc(Nc4ccc5c(c4)OCCO5)ncc3F)ccc2o1 [Compound R926485, N2-(3,4-Ethylenedioxyphenyl)-N4-(2-methoxycarbonylbenzofuran-5-yl)-5-fluoro-2,4-pyrimidinediamine] | 
